| SMILES | melting point |
| --- | --- |
| CCC1CC(=O)N(Cc2cccc(NC(=O)C(F)(F)C(F)(F)F)c2)N=C1c1ccc(OC)c(OC2CCCC2)c1 (configuration not stated) | 126 °C |
| CCOc1cc2c(cc1OC)Nc1[nH]cnc(=O)c1C2 | 335 to 336 °C |
| C=CCOc1cc(N)c(Cl)cc1C(=O)O | 136 to 137 °C |
| Cn1nc(-c2nc(C#N)c(N)nc2-c2ccccc2)ccc1=O | > 250 °C |
| COc1ccccc1C1=C(C#N)C(c2ccccc2OC)c2c[nH]nc2N1 (configuration not stated) | 220 °C |
| NS(=O)(=O)c1ccc(-c2cc(F)c(F)cc2-c2ccc(F)c(Cl)c2)cc1 | 162 to 163 °C |
| COc1cc(OC)nc(NC(=O)NS(=O)(=O)c2ncccc2C(O)CF)n1 (configuration not stated) | 119 to 120 °C |
| COC(=O)c1ccc(OC)c(C=O)c1 | 98 to 102 °C |
| O=Cc1nn(-c2c(Cl)cc(C(F)(F)F)cc2Cl)cc1SC(F)(F)F | 79 to 81 °C |
| Fc1ccc(N2CCN(Cc3cn4cc(C(F)(F)F)cc(Cl)c4n3)CC2)cc1 | 91 to 97 °C |
| O=C(O)c1ccc(-c2ccc3cc(OCc4ccccc4)c(C45CC6CC(CC(C6)C4)C5)cc3c2)cc1 | 305 to 310 °C |
| O=C1Cc2ccc(C3CCCCC3)cc2O1 | 80 to 81 °C |
| CN(C)CCSc1ccc2nccn2n1 | 52 to 54 °C |
| Oc1ccc2c(-c3ccccc3O)noc2c1 | 164 to 166 °C |
| CC(C)(C)OC(=O)N1CCc2c(cccc2C(=O)c2cc(Cl)ccc2N)C1 | 159 to 160 °C |
| CC(C)c1ccccc1N=C1NCCS1 | 76 to 77 °C |
| CCOC(=O)/C(=N\OCC(=O)N1CCCCC1)c1csc(N)n1 | 151 to 152 °C |
| CCOC(=O)c1cc2c3n(ccc-2n1)CC(C(C)(C)C)=N3 | 276 to 278 °C |
| CC(=NNc1ccccc1)c1ccc(N2CCN(c3c(C)nc(N)nc3N)CC2)cc1 | 239 to 241 °C |
| CC(=NO)c1ccc2c(c1)CCCN2C(=O)OC(C)(C)C | 127 to 129 °C |
| COc1cc(C=CC=C2OC(=O)NC2=O)ccc1OCc1coc(-c2ccccc2)n1 | 227 to 228 °C |
| OC1CCNc2nc(Br)ccc21 (configuration not stated) | 130 to 131 °C |
| CN(C)Cc1cc(C(=O)Nc2nc(-c3ccco3)c(C(=O)c3ccccc3)s2)ccn1 | 205 to 209 °C |
| Cc1ccc(C)c(C(CCC(=O)O)Oc2cc(OCc3ccsc3)ccc2C#N)c1 (racemic) | 135 to 136 °C |
| CNC(=O)C(=O)c1ccccc1COc1cc(C)ccc1C | 129 to 130 °C |
| CCCN1CCC(c2ccc(C(=O)NC3(C(=O)NCC#N)CCCCC3)cc2)CC1 | 198 to 200 °C |

| SMILES | melting point |
| --- | --- |
| CCCCc1nc(SCCF)c(C(=O)OCC)n1Cc1ccc(-c2ccccc2C(=O)O)cc1 | 79 °C |
| COc1ccc(F)cc1C(C)(C)CC(O)(Cc1ccc(C(C)=NO)cc1Cl)C(F)(F)F (configuration not stated) | 136 to 138 °C |
| Cn1nc(-c2cnc3[nH]cc(C(=O)NC4CCOCC4)c3n2)c2ccc(Cl)cc21 | 355 to 358 °C |
| CCOC(=O)c1cnn2c1c(S)nc1c(C)nn(C)c12 | 189 to 191 °C |
| CC(=CC#N)CCN1C(=O)c2ccccc2S1(=O)=O | 117 to 118 °C |
| N[C@@]1(C(=O)O)C[C@H](NC(=O)Nc2cccc(F)c2)[C@H]2[C@H](C(=O)O)[C@H]21 (relative stereo) | > 250 °C |
| Nc1nonc1NCCCOc1cccc(CN2CCCCC2)c1 | 87 to 88 °C |
| COCCOc1ccc(CCC(=O)O)c(Oc2ncc(C(F)(F)F)cc2Cl)c1 | 116 to 117 °C |
| Cc1c[nH]c2c(NC(=O)c3c(Cl)cccc3Cl)cccc2c1=O | > 300 °C |
| COc1cc2c(cc1Nc1ncc(Cl)c(Nc3ccc(N4CCOCC4)cc3OC)n1)CCN(CC(=O)N1CCCC1)CC2 | 82 to 105 °C |
| CN[C@@H](CC(C)C)C(=O)N[C@@H](Cc1ccccc1)C(N)=O | 136 to 138 °C |
| O=C(Nc1ccc(Cl)cc1)C1=C(N2CCCC2)CS(=O)(=O)N(Cc2ccc(Cl)cc2)c2ccccc21 | 190 to 194 °C |
| CCN(c1nc(C)cc(C)n1)c1ccc(C(C)C)cc1S(C)(=O)=O | 174 to 175 °C |
| Brc1cccc2nc(N3CCNCC3)ccc12 | 94 to 96 °C |
| CCOC(=O)c1c(CN2CCOCC2)nc2ccc(Cl)cc2c1-c1ccccc1 | 161 to 163 °C |
| CCOC(=O)c1[nH]c(C)c(C(C)(C)C)c1C | 108 to 110 °C |
| O=C1NC(=O)C2(c3cccc([N+](=O)[O-])c3)CC12 (configuration not stated) | 173 to 174 °C |
| N#CNc1ccccc1-c1ccccc1F | 68 to 69 °C |
| Cc1ccc2c(-c3cc(C(C)(C)C)c(O)c(C(C)(C)C)c3)n[nH]c2n1 | 239 to 240 °C |
| CCOC(=O)c1c(SC)c(C#N)c(=O)n2ccccc12 | 128 to 129 °C |
| CNC(=O)C(=NOC)c1ccccc1CO | 100 to 102 °C |
| C=C(C)CCOc1c(-c2ccc(S(C)(=O)=O)cc2)cnn(-c2ccc(F)cc2)c1=O | 109 to 111 °C |
| CS(=O)(=O)N1CCC=CCC1 | 95 to 96 °C |
| CCCCCCCCCCOc1cc(OCCCCCCc2cccc(O)c2O)cc(C(=O)OC)c1 | 71 to 72 °C |
| COc1ccc2c(c1)C(C)(C)NC2=O | 146 to 147 °C |
| Cc1c(OCCBr)ccc2c(=O)cc(N3CCOCC3)oc12 | 210 to 212 °C |

| SMILES | melting point |
| --- | --- |
| CC(C)(C)c1cc(OCc2ccc(-c3nnn[nH]3)cc2)cc(C(C)(C)C)c1 | 253 to 255 °C |
| COC(=O)c1c[nH]c(Sc2ccc(Cl)cc2)c1 | 122 to 124 °C |
| Cn1cc(C2c3ccc(Cl)cc3C=Cc3sc(N)nc32)c(=O)[nH]c1=O (configuration not stated) | > 240 °C |
| CC(C)(C)OC(=O)CNC(=O)c1sc(Nc2ccccc2)c2c1CCc1cnoc1-2 | 115 to 116 °C |
| O=C1Nc2ccccc2C(c2ccccc2F)CC1Br (configuration not stated) | 208 to 214 °C |
| Cn1cnc2nc(-c3ccc(Cl)cn3)nn2c1=S | > 300 °C |
| N#Cc1ccc(OCCCOc2ccc(-c3cc4ccc(C#N)cc4o3)cc2)cc1 | 208 to 210 °C |
| Nc1c(CC(=O)O)cccc1Oc1cc(Cl)cc(Cl)c1 | 113 to 115 °C |
| CN(c1ccc(Cl)cc1)S(=O)(=O)c1cccc(C(=O)Nc2ccc(Cl)cc2F)c1 | 119 to 120 °C |
| COc1ccc(C(=O)c2ccccc2)cc1COc1ccc(Cl)cc1 | 103 °C |
| COC(=O)c1cccc(-c2c(C)[nH]c(=S)n2Nc2cccc(C)c2)c1 | 164 to 166 °C |
| Cc1cccc(C2CC(=O)c3ccccc3O2)c1 (configuration not stated) | 156 to 158 °C |
| COc1cc(C)nc(NCSc2ccc(Cl)cc2)n1 | 78 to 82 °C |
| CN(C)C(=O)Nc1cc(CNc2ccccc2C(=O)Nc2ccc3cn(C)nc3c2)ccn1 | 184 °C |
| O=C(NCc1ccc(Cl)cc1)c1cnc2sc(Br)cc2c1O | 234 to 236 °C |
| CC(C)(CNc1ccnc2cc(Cl)ccc12)NCc1cc(C(F)(F)F)cc(C(F)(F)F)c1 | 140 to 141 °C |
| COC(=O)c1ccc2c(OC)ccnc2c1 | 147 to 148 °C |
| COc1ccc(N2CCN(Cc3cn4cc(Cl)ccc4n3)CC2)cc1 | 111 to 112 °C |
| CCOC(=O)c1c(C)n(C)cc(-c2ccc(Cl)cc2)c1=O | 200 to 201 °C |
| O=c1c2cc(C=NO)ccc2oc2ncccc12 | 254 to 256 °C |
| Fc1ccc2c(c1)CCc1cccnc1C2=C1CCNCC1 | 134 °C |
| CC(C)(C)C(=O)OCc1cc2c(cc1C#Cc1ccccc1)NC(=O)CC(c1cccc(C#N)c1)=N2 | 218 °C |
| CCCCCCS(=O)C1CC(=O)N1CC(=O)CCc1ccccc1 (configuration not stated) | 154 to 155 °C |
| O=S(=O)(c1ccccc1)c1ccc(OCc2ccccc2)c(O)c1 | 144 to 148 °C |
| CCOC(=O)N(C)n1cccc1C(=O)c1ccccc1F | 64 to 66 °C |
| O=C(Nc1nccs1)c1ccc(CN2C(=O)C3(COc4cc5c(cc43)CCO5)c3ccccc32)cc1 (configuration not stated) | > 250 °C |

| SMILES | melting point |
| --- | --- |
| Cc1cc2c(N)c([N+](=O)[O-])cnc2s1 | 238 to 240 °C |
| CN(N=Cc1ccc(Br)cc1)C(=O)c1[nH]c2ccccc2c1-c1ccccc1 | 210 to 212 °C |
| CCCN(CCC)CC(=O)OC1CC2(C)C(C(=O)CO)CCC2C2CCC3CC(O)CCC3(C)C12 (configuration not stated) | 98 to 102 °C |
| COC1NC(=O)C(OC)(OC)C1Cl (configuration not stated) | 141 to 142 °C |
| CC(=NO)c1c(C#N)nn(-c2c(Cl)cc(C(F)(F)F)cc2Cl)c1N | 105 to 110 °C |
| CC(C)Oc1cc(OC(C)C)c(C(=O)O)c(C(F)(F)F)n1 | 147 to 150 °C |
| CP(=O)(O)CC(F)CN (configuration not stated) | 78 to 84 °C |
| CC(C)C[C@H](NC(=O)OCC1c2ccccc2-c2ccccc21)C(=O)N[C@H]1CCOC1OCc1ccc2ccccc2c1 (some centres not stated) | 79 to 80 °C |
| Nc1ncnc2c1c(-c1cccc(F)c1)nn2Cc1oc2ccccc2c(=O)c1-c1ccccc1 | 244 to 247 °C |
| CC(=O)N(C(C)=O)c1c(I)c(C(=O)Cl)c(I)c(N(C(C)=O)C(C)=O)c1I | 231 to 232 °C |
| CCc1ccc2c(Cc3nc4c(F)c(F)cc(F)c4s3)cn(CC(=O)O)c2n1 | 155 to 157 °C |
| Nc1nnc(-c2ccccc2Nc2cccc(C(F)(F)F)c2)o1 | 185 to 187 °C |
| CC(=O)NCc1ccc2c(c1)N(C1CCNCC1)CC2 | 165 to 167 °C |
| Cc1c(NC(=O)c2ccc(OC[C@@H]3CCCO3)cc2)ccc2[nH]c(CNC3CCCC3)cc12 | 191 to 192 °C |
| Cc1c(O)cc(O)cc1C(=O)OCc1ccc([N+](=O)[O-])cc1 | 160 to 163 °C |
| N#Cc1cc(C(=O)c2ccccc2)ccc1O | 185 to 186 °C |
| COc1ccc(CCN(C)CCOc2ccc(NC(=O)c3cccc4c(=O)c5cccc(OC)c5[nH]c34)cc2)cc1OC | 190 °C |
| C=CC(=O)Nc1ccc(C(=O)C[N+](=O)[O-])c(Cl)c1 | 140 to 144 °C |
| CSCCC(=O)N(C)c1sc(-c2cncc(F)c2)nc1C#N | 97 to 98 °C |
| Cc1cc2c(nc1C(O)c1ccc(C(F)(F)F)cc1)CCCCC2 (configuration not stated) | 131 to 133 °C |
| COc1ccc2c(c1)OCC(=Cc1cccnc1)C2=O | 126 to 128 °C |
| O=c1[nH]c(=O)c2cn(C3CCCC3)nc2[nH]1 | > 300 °C |
| Cc1ncc2n1-c1ccc(Cl)cc1C(c1ccccc1)=NC2 | 187 to 188 °C |
| CN1CC(=O)Nc2ccncc2C1=O | 267 to 268 °C |

From a melting point compilation (Tetko et al.; mined from patent text by program, amines drawn as free bases though some values may be those of a salt)
